{"source": "patent US9872875B2", "about": "“Component and method for treating viral disease” (Institut Pasteur of Shanghai, Chinese Academy of Sciences, priority 2012, dated 2018)", "key": {"[1]": {"system": "Coxsackie virus A16 (CVA16)", "assay": "Coxsackie virus A16 TCID50 in RD cells", "assay_type": "cell-based", "source_text": "Coxsackie virus A16 in 10-fold serial dilutions were used to infect RD cells at different E02 concentrations. After cultured for 2 days, CPE was observed under optical microscope, and stained with crystal violet, to calculate 50% tissue culture infective dose. Specific procedures were the same as the TCID50 testing method of Example 1."}, "[2]": {"system": "EV71 clinical isolate SH-RS", "assay": "EV71 SH-RS replication in RD cells, quantitative RT-PCR", "assay_type": "cell-based, Enterovirus 71", "conditions": "MOI 0.1, 46 h", "method": "RD cells were infected with EV71 SH-TS or SH-RS at different E02 concentrations, at the MOI of 0.1. After cultured for 46 h, viral RNA in culture supernatant was extracted. Relative EV71 viral load was determined by quantitative RT-PCR. See Example 1 for specific procedures of quantitative RT-PCR."}, "EV71 isolate SEP-4": {"system": "EV71 isolate SEP-4", "assay": "EV71 SEP-4 replication in Vero cells, quantitative RT-PCR", "assay_type": "cell-based, Enterovirus 71", "conditions": "SEP-4, Vero cells, MOI 0.1, 46 h", "method": "Vero cells were infected with EV71 SEP-4 virus strain (provided by Institut Pasteur of Cambodia, Cambodia strain) at different E02 concentrations, at the MOI of 0.1. After cultured for 46 h, viral RNA in culture supernatant was extracted. Relative EV71 viral load was determined by quantitative RT-PCR. For specific procedures, refer to Example 1."}, "[3]": {"system": "EV71 clinical isolate (EV71 FY 573)", "assay": "EV71 plaque forming units in RD cells", "assay_type": "cell-based, Enterovirus 71", "conditions": "Enterovirus A, EV71 FY 573, 5-7 days, read-out: EC50 to reduce EV71 PFU in RD cells", "method": "EV71 (clinical isolate of EV71 FY 573) was used to infect RD cells cultured in 12-well plates at different E02 concentrations. After cultured for 5 to 7 days, stained and plaque forming units were calculated. Procedures are detailed as follows:\n(1) Cell seeding: 24 h prior to infection, RD cells were seeded in 12-well cell culture plates, 2×10^5 cells per well.\n(2) Infection of cells: • a. Virus pre-incubated with drug: virus stock solution was in 10-fold serially diluted with DMEM to 50,000 PFU/ml, 5,000 PFU/ml, and 500 PFU/ml; and dispensed to 12-well plates at 500 μl per well, and 56 μl of E02 dissolved in DMEM at corresponding concentration was added, and incubated at 37° C. for 1 h; • b. Cells pre-incubated with drug: cell culture medium was removed from 12-well plates, each well was added 500 μl DMEM, then added 56 μl of E02 solution at corresponding concentration, and incubated at 37° C. for 1 h; • c. After 1 h incubation, drug was discarded from cell culture plates, 556 μl of virus pre-incubated with drug was transferred to cell culture plates, and incubated at 37° C. for 1 h; • d. […]\n(3) After cultured for 5-7 days, gels were removed, stained with crystal violet, washed once with PBS, plaque numbers recorded and plaque forming units calculated."}, "CVA16": {"system": "CVA16", "assay": "CVA16 infection in ICR newborn mice, viral RNA in tissues and serum", "assay_type": "in vivo", "conditions": "50 mg/kg of E02 intraperitoneally; 6 days after infection", "method": "5×10^6 TCID50 CVA16 viruses (50 μl) were injected to infect two three-day-old ICR newborn mice. Five days after infection, serum and tissues (brain, bone marrow, heart, intestine, kidney, liver, lung, muscle, spleen, and thymus) were collected. Viral RNA in serum was extracted (viral RNA extraction kit, QIAGEN QIAamp Viral RNA Mini Kit, cat #52906). Tissue samples were placed in RNAstore preservation solution (Tiangen, DP408-02) and stored in −80° C. refrigerator. Total tissue RNA was extracted using tissue RNA extraction kit (RNAprep pure total animal tissue RNA extraction kit). Copies of CVA16 viral genome and GAPDH gene were detected using one-step real-time quantitative RT-PCR kit (QIAGEN QuantiTect SYBR Green RT-PCR Kit) in ABI 7900HT 384-well plate PCR system. Primers are the same as that of EV71 5′UTR primers. See Table 3 and Table 4 for reaction system and PCR program. See FIG. 8 for relative viral load in each tissue and serum. Clearly, CVA16 virus was detected mainly in brain, spinal cord, muscle, and serum.\nThree-day-old ICR newborn mice were infected with CVA16 to test E02's efficacy to inhibit EV71 in vivo. Test mice were divided into three groups: drug group, infection group, and placebo group. […] RNA from tissues and serum were extracted and CVA16 viral RNA determined Treatment procedures were the same as previously described in “1.”"}, "[4]": {"system": "EV71 clinical isolate SH-TS", "assay": "EV71 SH-TS PFU in RD cells", "assay_type": "cell-based, Enterovirus 71", "conditions": "Enterovirus A, 168 h, 5~7 days, read-out: EC50 to reduce EV71 SH-TS PFU in RD cells", "method": "RD cells cultured in 12-well plates were infected with EV71 SH-TS or SH-RS at different E02 concentrations. After cultured for 5˜7 days, cells were stained and plaque-forming units were calculated. Same procedure is as detailed in “3. E02 reduces EV71 plaque forming units in RD cells” of Example 1."}}, "data": [{"smiles": "Cc1ccc(C(=O)Nc2ccc(S(=O)(=O)O)c3cc(S(=O)(=O)O)cc(S(=O)(=O)O)c23)cc1NC(=O)c1cccc(NC(=O)Nc2cccc(C(=O)Nc3cc(C(=O)Nc4ccc(S(=O)(=O)O)c5cc(S(=O)(=O)O)cc(S(=O)(=O)O)c45)ccc3C)c2)c1", "note": "[E02, Suramin Sodium]", "values": [{"measurement": "effect on CVA16 TCID50 in RD cells", "setting": "[1]; 10 μM of E02", "result": "CVA16 TCID50 reduction"}, {"measurement": "CVA16 titer in RD cells", "setting": "[1]; 25 μM of E02, reduced from 1×10^9 TCID50/ml, 2 days", "result": "1×10^4 TCID50/ml"}, {"measurement": "concentration reducing EV71 replication by 10-fold", "setting": "[2]", "result": 4.41, "unit": "μM"}, {"measurement": "concentration reducing EV71 replication by 1000-fold", "setting": "[2]", "result": 16.29, "unit": "µM"}, {"measurement": "concentration reducing EV71 replication by 10-fold", "setting": "EV71 isolate SEP-4", "result": 5.89, "unit": "μM"}, {"measurement": "concentration reducing EV71 replication by 100-fold", "setting": "EV71 isolate SEP-4", "result": 15.49, "unit": "µM"}, {"measurement": "EC50", "setting": "[3]", "result": 2600, "unit": "nM"}, {"measurement": "CVA16 RNA in brain, bone marrow, muscle and serum", "setting": "CVA16", "result": "significantly decreased"}, {"measurement": "EC50", "setting": "[4]", "result": 2240, "unit": "nM"}]}]}
